The data set can be described thus: an = ratio of the nth substance listed. Conditions: 101 kPa, Liquid, Vibrating tube method.

± gives the expanded uncertainty stated by the source.

`Cn1cc[n+](C)c1.F[B-](F)(F)F` [1,3-dimethyl-1H-imidazolium tetrafluoroborate] + O: for the setting “313.15 K, a1 = 0.75”, the mass density is recorded as 1098.4 ± 0.3 kg/m3.

As to `COP(=O)([O-])OC.Cn1cc[n+](C)c1` [1,3-dimethylimidazolium dimethylphosphate] + O, the mass density runs as follows: (293.15 K, a1 = 0.5) 1086.4 ± 0.2 kg/m3; (293.15 K, a1 = 0.75) 1112.3 ± 0.3 kg/m3; (313.15 K, a1 = 0.5) 1076.8 ± 0.2 kg/m3; (313.15 K, a1 = 0.75) 1104.1 ± 0.2 kg/m3; (333.15 K, a1 = 0.5) 1076.6 ± 0.2 kg/m3; (333.15 K, a1 = 0.75) 1103.3 ± 0.2 kg/m3.

With `Cn1cc[n+](C)c1.[Cl-]` [1,3-dimethylimidazolium chloride] + O, the mass density (313.15 K, a1 = 0.75) worked out at 1096.1 ± 0.3 kg/m3.
